Two compounds from EP0533790B1, “NEW SALT FORM OF 5-DIFLUOROMETHOXY-2- [3,4-DIMETHOXY-2-PYRIDYL)METHYLSULFINYL-1H-BENZIMIDAZOLE” (BYK GULDEN LOMBERG CHEMISCHE FABRIK GMBH, priority 1990, dated 1991) can be followed below.

Holding throughout (type): physicochemical
Data set [1] in a line: Limiting solubility in phosphate buffer, measured in the presence of undissolved solid. Particulars: 22°C; for Grenzlöslichkeit: pH 7,4, in the presence of undissolved solid.
The next data set is described as follows: Solubility in acetone. Conditions: solvent acetone (for the 1,5-Hydrat also other lower ketones).
Data set [2] in a line: Hygroscopicity / water uptake on storage. Here is the method:
So nimmt es bei Temperaturen von 20 bzw. 30°C und einer relativen Luftfeuchtigkeit von 80 % bei der Lagerung kein Wasser auf (keine Umwandlung in das 1,5-Hydrat!).

Take `COc1ccnc(C[S+]([O-])c2nc3ccc(OC(F)F)cc3[nH]2)c1OC` (stereo not shown) [1,5-Hydrat, 5-Difluormethoxy-2-[(3,4-dimethoxy-2-pyridyl)methylsulfinyl]-1H-benzimidazol-Natriumsalz-1,5-hydrat, reference compound]: the Grenzlöslichkeit in data set [1] is 6,2 x 10^-4 mol/l. Also, the “Löslichkeit in Aceton” value in “Solubility in acetone” is recorded as “leichtlöslich”.
As to `COc1ccnc(C[S+]([O-])c2nc3ccc(OC(F)F)cc3[nH]2)c1OC` (stereo not shown) [Monohydrat, 5-Difluormethoxy-2-[(3,4-dimethoxy-2-pyridyl)methylsulfinyl]-1H-benzimidazol-Natriumsalz-monohydrat], the Hygroskopizität entry in data set [2] is reported as “nicht hygroskopisch”. In addition, in data set [2] (20 or 30°C, relative humidity 80 %, storage), the “Wasseraufnahme bei der Lagerung” value was “kein Wasser”. The Grenzlöslichkeit in data set [1] was found to be 0.0013 mol/L. Moreover, the “Grenzlöslichkeit relative to the 1,5-Hydrat” value in data set [1] (pH 7,4, ratio versus the 1,5-Hydrat) is listed as “etwa doppelt so große”. In addition, the “Löslichkeit in Aceton” value in “Solubility in acetone” is “schwer löslich”.
